Test results reported in ChEMBL document CHEMBL1201862, “PubChem BioAssay data set” (2004).
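Assay format: 96-well plates, 48-hour exposure. Abbreviation: GI50, concentration required for 50% inhibition of growth.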 Active and inactive are the calls of the source. Rule as the data show it: active = GI50 up to about 1.1 µM and inactive = higher.

Legend:
Assay in all cases: DTP human tumour cell line panel, 48 h
SNB-19 = system: SNB-19
TK-10 = system: TK-10
OVCAR-3 = system: OVCAR-3
T47D = system: T47D
Malme-3M = system: Malme-3M
SW-620 = system: SW-620
PC-3 = system: PC-3
MDA-MB-231 = system: MDA-MB-231
SNB-75 = system: SNB-75
MOLT-4 = system: MOLT-4
NCI-H460 = system: NCI-H460
HCC 2998 = system: HCC 2998
SK-MEL-5 = system: SK-MEL-5
UACC-62 = system: UACC-62
SF-539 = system: SF-539
CAKI-1 = system: CAKI-1
CCRF-CEM = system: CCRF-CEM
SK-MEL-2 = system: SK-MEL-2
NCI-H522 = system: NCI-H522
LOX IMVI = system: LOX IMVI

SMILES	GI50 (SNB-19)	GI50 (TK-10)	GI50 (OVCAR-3)	GI50 (T47D)	GI50 (Malme-3M)	GI50 (SW-620)	GI50 (PC-3)	GI50 (MDA-MB-231)	GI50 (SNB-75)	GI50 (MOLT-4)	GI50 (NCI-H460)	GI50 (HCC 2998)	GI50 (SK-MEL-5)	GI50 (UACC-62)	GI50 (SF-539)	GI50 (CAKI-1)	GI50 (CCRF-CEM)	GI50 (SK-MEL-2)	GI50 (NCI-H522)	GI50 (LOX IMVI)
Cc1nc2cc(Cl)c(N)cc2[nH]1	> 100 µM (inactive)	> 100 µM (inactive)	> 100 µM (inactive)	> 100 µM (inactive)	> 100 µM (inactive)	> 100 µM (inactive)	> 100 µM (inactive)	> 100 µM (inactive)	> 100 µM (inactive)	> 100 µM (inactive)	> 100 µM (inactive)	> 10 µM (inactive)	> 100 µM (inactive)	> 100 µM (inactive)	> 10 µM (inactive)	> 100 µM (inactive)	> 100 µM (inactive)	> 100 µM (inactive)	> 100 µM (inactive)	> 100 µM (inactive)
O=c1oc2ccccc2cc1-c1nc2ccc([N+](=O)[O-])cc2o1	30.2 µM (inactive)	> 100 µM (inactive)	> 100 µM (inactive)	> 100 µM (inactive)	> 100 µM (inactive)	> 100 µM (inactive)	> 100 µM (inactive)	> 100 µM (inactive)	> 100 µM (inactive)	> 100 µM (inactive)	> 100 µM (inactive)	> 100 µM (inactive)	> 100 µM (inactive)	> 100 µM (inactive)	65.2 µM (inactive)	> 100 µM (inactive)	> 100 µM (inactive)	> 100 µM (inactive)	> 100 µM (inactive)	> 100 µM (inactive)
NC(=O)C1CCCN1C(=O)N(CCCl)N=O (stereo not given)	> 100 µM (inactive)	> 100 µM (inactive)	> 100 µM (inactive)	> 100 µM (inactive)	> 100 µM (inactive)	> 100 µM (inactive)	> 100 µM (inactive)	> 100 µM (inactive)	14.9 µM (inactive)	> 100 µM (inactive)	> 100 µM (inactive)	> 100 µM (inactive)	> 100 µM (inactive)	> 100 µM (inactive)	> 100 µM (inactive)	> 100 µM (inactive)	> 100 µM (inactive)	> 100 µM (inactive)	> 100 µM (inactive)	> 100 µM (inactive)
C=C1COC(O)(C2OCOC(C3CC(=O)NC(=O)C3)C2O)C1C (stereo not given)	0.00233 µM (active)	0.00895 µM (active)	0.00356 µM (active)	0.00146 µM (active)	0.00221 µM (active)	0.0043 µM (active)	0.0031 µM (active)	0.00847 µM (active)	0.00494 µM (active)	0.0011 µM (active)	0.00413 µM (active)	0.00278 µM (active)	0.00126 µM (active)	0.00429 µM (active)	0.00185 µM (active)	0.00468 µM (active)	0.00106 µM (active)	0.0016 µM (active)	0.000716 µM (active)	0.00158 µM (active)
C=C(c1nc2ccc(Cl)cc2[nH]c1=O)C(O)c1ccc(C(O)C(=O)c2nc3ccc(Cl)cc3[nH]c2=O)cc1 (stereo not given)	> 100 µM (inactive)	> 100 µM (inactive)	> 100 µM (inactive)	> 100 µM (inactive)	> 100 µM (inactive)	> 100 µM (inactive)	87.9 µM (inactive)	> 100 µM (inactive)	> 100 µM (inactive)	33.2 µM (inactive)	> 100 µM (inactive)	> 100 µM (inactive)	> 95.1 µM (inactive)	> 79.6 µM (inactive)	> 100 µM (inactive)	> 100 µM (inactive)	4.28 µM (inactive)	> 100 µM (inactive)	47.1 µM (inactive)	> 83.6 µM (inactive)
